Measurements from the supplement of paper PMC11962398.

Legend:
BI-2493 [1] = compound: T1, C[C@H]1CNCCN1c1nccc(-c2noc3c2CCC[C@@]32CCCc3sc(N)c(C#N)c32)n1 [BI-2493]; settings: 5 days
Experimental: (§1)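 PRISM pooled barcoded cancer cell line viability screen (Broad Institute) with BI-2493 at 8 doses in threefold dilutions from 0.00457 to 10 µmol/L, 5-day treatment; curves fitted per cell line. IC50 is undefined (placeholder) for resistant lines. AUC is capped at 1, and sensitivity is reported as 1 − AUC.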

BI-2493 [2] = compound: T1, BI-2493; test: 1 - AUC of viability dose-response curve (sensitivity) (fraction); higher = more sensitive; settings: 5 days
Experimental: as §1

| Test System | IC50 of cell viability (BI-2493 [1]) [µM] | 1 - AUC of viability dose-response curve (BI-2493 [2]) |
| --- | --- | --- |
| HCSC1_CERVIX | 9.79 | 0.0229 |
| HCT116_LARGE_INTESTINE | 4.75 | 0.167 |
| HDMB03_CENTRAL_NERVOUS_SYSTEM | 4.5 | 0.129 |
| HDMYZ_HAEMATOPOIETIC_AND_LYMPHOID_TISSUE | 9.62 | 0.00919 |
| HDQP1_BREAST | 8.25 | 0.0753 |
| HEC1A_ENDOMETRIUM | 3.64 | 0.136 |
| HEC1B_ENDOMETRIUM | 3.94 | 0.175 |
| HEC1_ENDOMETRIUM | 5.02 | 0.131 |
| HEC6_ENDOMETRIUM | 8.15 | 0.0397 |
| HEC59_ENDOMETRIUM | 9.3 | 0.025 |
| HEC108_ENDOMETRIUM | 5.68 | 0.123 |
| HEC116_ENDOMETRIUM | 9.57 | 0.012 |
| HEC151_ENDOMETRIUM | 5.89 | 0.0839 |
| HEC251_ENDOMETRIUM | 3.15 | 0.282 |
| HEC265_ENDOMETRIUM | 3.76 | 0.109 |
| HEL9217_HAEMATOPOIETIC_AND_LYMPHOID_TISSUE | 4.27 | 0.173 |
| HEL_HAEMATOPOIETIC_AND_LYMPHOID_TISSUE | 4.89 | 0.255 |
| HEP3B217_LIVER | 6.95 | 0.0726 |
| HEPG2_LIVER | 4.13 | 0.0929 |
| HEYA8_OVARY | 3.57 | 0.117 |
| HGC27_STOMACH | 3.92 | 0.158 |
| HH_HAEMATOPOIETIC_AND_LYMPHOID_TISSUE | 5.02 | 0.0743 |
| HKA1_SKIN | 4 | 0.111 |
| HKGZCC_BILIARY_TRACT | 1.41 | 0.281 |
| HL60_HAEMATOPOIETIC_AND_LYMPHOID_TISSUE | > 10 | 0.089 |

| Test System | IC50 of cell viability (BI-2493 [1]) [µM] | 1 - AUC of viability dose-response curve (BI-2493 [2]) |
| --- | --- | --- |
| HLF_LIVER | 7.5 | 0.0644 |
| HMC18_BREAST | 4.86 | 0.15 |
| HOS_BONE | 7.39 | 0.0734 |
| HOTHC_THYROID | 9.68 | 0.00917 |
| HPAC_PANCREAS | 1.1 | 0.312 |
| HPAFII_PANCREAS | 0.582 | 0.396 |
| HPBALL_HAEMATOPOIETIC_AND_LYMPHOID_TISSUE | 4.23 | 0.0862 |
| HS294T_SKIN | 5.34 | 0.0895 |
| HS611T_HAEMATOPOIETIC_AND_LYMPHOID_TISSUE | > 10 | < 0 |
| HS683_CENTRAL_NERVOUS_SYSTEM | 9.89 | 0.0105 |
| HS729_SOFT_TISSUE | 8.7 | 0.101 |
| HS766T_PANCREAS | 6.84 | 0.108 |
| HS852T_SKIN | 9.99 | 0.00841 |
| HS939T_SKIN | 8.03 | 0.0542 |
| HS944T_SKIN | 3.82 | 0.103 |
| HSC1_SKIN | 4.81 | 0.111 |
| HSC2_UPPER_AERODIGESTIVE_TRACT | 3.64 | 0.169 |
| HSC3_UPPER_AERODIGESTIVE_TRACT | 5.44 | 0.138 |
| HSC5_SKIN | 5.05 | 0.126 |
| HSKTC_OVARY | 4.41 | 0.166 |
| HT3_CERVIX | 5.97 | 0.17 |
| HT29_LARGE_INTESTINE | 5.08 | 0.15 |
| HT55_LARGE_INTESTINE | 4.03 | 0.195 |
| HT115_LARGE_INTESTINE | 2.29 | 0.229 |
| HT144_SKIN | 5.71 | 0.091 |

| Test System | IC50 of cell viability (BI-2493 [1]) [µM] | 1 - AUC of viability dose-response curve (BI-2493 [2]) |
| --- | --- | --- |
| HT1080_SOFT_TISSUE | 3.19 | 0.209 |
| HT1197_URINARY_TRACT | 4.69 | 0.0777 |
| HT1376_URINARY_TRACT | 5.68 | 0.175 |
| HTMMT_ENDOMETRIUM | 5.79 | 0.0985 |
| HT_HAEMATOPOIETIC_AND_LYMPHOID_TISSUE | 6.79 | 0.104 |
| HUG1N_STOMACH | 0.544 | 0.393 |
| HUH1_LIVER | 4.85 | 0.0866 |
| HUH6_LIVER | 6.78 | 0.0714 |
| HUH7_LIVER | 8.94 | 0.0355 |
| HUH28_BILIARY_TRACT | 9.21 | 0.0149 |
| HUO9_BONE | 9.56 | 0.0106 |
| HUPT3_PANCREAS | 5.16 | 0.182 |
| HUPT4_PANCREAS | 3.9 | 0.147 |
| IALM_LUNG | 1.56 | 0.317 |
| ICC4_BILIARY_TRACT | 3.75 | 0.184 |
| ICC8_BILIARY_TRACT | 7.67 | 0.185 |
| ICC9_BILIARY_TRACT | 4.52 | 0.225 |
| ICC10_BILIARY_TRACT | 9.23 | 0.0142 |
| ICC12_BILIARY_TRACT | 4.21 | 0.0946 |
| ICC137_BILIARY_TRACT | 7.76 | 0.116 |
| IGR1_SKIN | 7.02 | 0.0813 |
| IGR37_SKIN | 8.82 | 0.111 |
| IGR39_SKIN | 5.87 | 0.0609 |
| IGROV1_OVARY | 8.03 | 0.205 |
| IHH4_THYROID | 7.16 | 0.0625 |

| Test System | IC50 of cell viability (BI-2493 [1]) [µM] | 1 - AUC of viability dose-response curve (BI-2493 [2]) |
| --- | --- | --- |
| IM95_STOMACH | 4.31 | 0.152 |
| IPC298_SKIN | 4.47 | 0.0978 |
| ISHIKAWAHERAKLIO02ER_ENDOMETRIUM | 6.65 | 0.174 |
| ISTMES1_PLEURA | 8.84 | 0.0873 |
| J82_URINARY_TRACT | 5.23 | 0.122 |
| JAR_PLACENTA | 3.54 | 0.242 |
| JEKO1_HAEMATOPOIETIC_AND_LYMPHOID_TISSUE | 5.06 | 0.0886 |
| JHH4_LIVER | 6.96 | 0.071 |
| JHH5_LIVER | 0.387 | 0.297 |
| JHH6_LIVER | 4.43 | 0.0848 |
| JHH7_LIVER | 1.67 | 0.27 |
| JHOC5_OVARY | 5.69 | 0.139 |
| JHOM1_OVARY | 4.83 | 0.119 |
| JHOS2_OVARY | 9.64 | 0.0182 |
| JHUEM7_ENDOMETRIUM | 5.02 | 0.101 |
| JIMT1_BREAST | 5.98 | 0.115 |
| JL1_PLEURA | > 10 | 0.13 |
| JMSU1_URINARY_TRACT | > 10 | 0.00212 |
| JOPACA1_PANCREAS | 4.96 | 0.107 |
| JR_SOFT_TISSUE | 1.44 | 0.275 |
| JURLMK1_HAEMATOPOIETIC_AND_LYMPHOID_TISSUE | 3.42 | 0.169 |
| JVM3_HAEMATOPOIETIC_AND_LYMPHOID_TISSUE | 9.45 | 0.105 |
